Assay results from US9062124B2, “GIP-based mixed agonists for treatment of metabolic disorders and obesity” (priority 2008, dated 2015).
Where a SMILES comes first, the peptide text is derived from it. Bridges are numbered along the chain shown (N, C = ends). Where no end group is shown, it is not given here. [ ]: non-standard residue; d: D form. Dab = NCC[C@H](N)C(=O)O; Aib = CC(C)(N)C(=O)O

Assays:
glucagon receptor = target: T1, glucagon receptor (Homo sapiens, UniProt P47871); assay: cAMP synthesis functional assay (firefly luciferase reporter in HEK293 cells), glucagon receptor; format: cell-based; conditions: for % activity*: glucagon receptor; for EC50: Glucagon Receptor EC50, nM; for EC50 / Glucagon Receptor relative activity: Table 1; for Glucagon Receptor relative activity: relative to the native hormone of the indicated receptor
T1 construct: expressed in transfected cells; host or cells: HEK293
T1 sequence (P47871 26-477): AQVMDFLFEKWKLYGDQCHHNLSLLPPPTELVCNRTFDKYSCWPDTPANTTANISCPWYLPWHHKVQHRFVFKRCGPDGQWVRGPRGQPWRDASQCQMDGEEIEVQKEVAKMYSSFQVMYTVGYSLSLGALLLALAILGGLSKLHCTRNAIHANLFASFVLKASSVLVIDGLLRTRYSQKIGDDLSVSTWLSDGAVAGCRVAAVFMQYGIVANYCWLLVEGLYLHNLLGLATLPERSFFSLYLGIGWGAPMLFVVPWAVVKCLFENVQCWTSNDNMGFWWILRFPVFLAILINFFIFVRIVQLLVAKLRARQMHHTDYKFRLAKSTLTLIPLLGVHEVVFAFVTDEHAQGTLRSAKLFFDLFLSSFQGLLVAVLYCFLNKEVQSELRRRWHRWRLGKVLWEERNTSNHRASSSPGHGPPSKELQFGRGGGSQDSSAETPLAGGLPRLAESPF

GLP-1 receptor = target: T2, GLP-1 receptor (Homo sapiens, UniProt P43220); assay: cAMP synthesis functional assay (firefly luciferase reporter in HEK293 cells), GLP-1 receptor; format: cell-based; conditions: Table 1; for GLP-1 Receptor relative activity: relative to the native hormone of the indicated receptor
T2 construct: expressed in transfected cells; host or cells: HEK293
T2 sequence (P43220 24-463, species assumed): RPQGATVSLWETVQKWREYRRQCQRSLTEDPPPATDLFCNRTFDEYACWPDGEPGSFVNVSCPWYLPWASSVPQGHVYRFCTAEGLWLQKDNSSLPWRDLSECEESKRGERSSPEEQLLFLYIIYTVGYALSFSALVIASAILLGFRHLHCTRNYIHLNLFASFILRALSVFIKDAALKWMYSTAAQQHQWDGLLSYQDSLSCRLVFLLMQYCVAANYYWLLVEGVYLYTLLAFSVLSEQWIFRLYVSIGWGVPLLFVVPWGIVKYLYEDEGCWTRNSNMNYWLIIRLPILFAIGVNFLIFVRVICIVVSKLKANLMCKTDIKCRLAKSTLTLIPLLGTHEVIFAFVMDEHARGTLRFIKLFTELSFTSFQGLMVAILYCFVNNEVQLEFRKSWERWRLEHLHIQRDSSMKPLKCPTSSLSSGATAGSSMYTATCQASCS

**Q.** How did the “% activity*” value (glucagon receptor; Table 6) turn out when `CNC(=O)CC[C@H](NC(=O)[C@H](CO)NC(=O)[C@@H](N)Cc1c[nH]cn1)C(=O)NCC(=O)N[C@H](C(=O)N[C@@H](Cc1ccccc1)C(=O)N[C@H](C(=O)N[C@@H](CO)C(=O)N[C@@H](CC(=O)O)C(=O)N[C@@H](Cc1ccc(O)cc1)C(=O)N[C@@H](CO)C(=O)N[C@@H](CCCCN)C(=O)N[C@@H](Cc1ccc(O)cc1)C(=O)N[C@@H](CC(C)C)C(=O)N[C@@H](CC(=O)O)C(=O)NC(C)(C)C(=O)N[C@@H](CCCNC(=N)N)C(=O)N[C@@H](CCCNC(=N)N)C(=O)N[C@@H](C)C(=O)N[C@@H](C)C(=O)N[C@@H](CC(=O)O)C(=O)N[C@@H](Cc1ccccc1)C(=O)N[C@H](C(=O)N[C@@H](C)C(=O)N[C@@H](Cc1c[nH]c2ccccc12)C(=O)N[C@@H](CC(C)C)C(=O)N[C@@H](CCSC)C(=O)N[C@@H](CC(=O)O)C(=O)N[C@@H](CCC(=O)O)C(=O)O)C(C)C)[C@@H](C)O)[C@@H](C)O` [SEQ ID NO: 251] was run?
**A.** The value was 55%.

**Q.** How did the “% activity*” value (glucagon receptor; Table 7) turn out when `CC(=O)NCC[C@H](NC(=O)[C@H](CO)NC(=O)[C@@H](N)Cc1c[nH]cn1)C(=O)NCC(=O)N[C@H](C(=O)N[C@@H](Cc1ccccc1)C(=O)N[C@H](C(=O)N[C@@H](CO)C(=O)N[C@@H](CC(=O)O)C(=O)N[C@@H](Cc1ccc(O)cc1)C(=O)N[C@@H](CO)C(=O)N[C@@H](CCCCN)C(=O)N[C@@H](Cc1ccc(O)cc1)C(=O)N[C@@H](CC(C)C)C(=O)N[C@@H](CC(=O)O)C(=O)NC(C)(C)C(=O)N[C@@H](CCCNC(=N)N)C(=O)N[C@@H](CCCNC(=N)N)C(=O)N[C@@H](C)C(=O)N[C@@H](C)C(=O)N[C@@H](CC(=O)O)C(=O)N[C@@H](Cc1ccccc1)C(=O)N[C@H](C(=O)N[C@@H](C)C(=O)N[C@@H](Cc1c[nH]c2ccccc12)C(=O)N[C@@H](CC(C)C)C(=O)N[C@@H](CC(C)C)C(=O)N[C@@H](CC(=O)O)C(=O)N[C@H](C(=O)NCC(=O)N1CCC[C@H]1C(=O)N[C@@H](CO)C(=O)N[C@@H](CO)C(=O)NCC(=O)N[C@@H](C)C(=O)N1CCC[C@H]1C(=O)N1CCC[C@H]1C(=O)N1CCC[C@H]1C(=O)N[C@@H](CO)C(N)=O)[C@@H](C)O)C(C)C)[C@@H](C)O)[C@@H](C)O` [SEQ ID NO: 254] (H-HS[Dab](Ac)GTFTSDYSKYLD[Aib]RRAADFVAWLLDTGPSSGAPPPS-NH2; N-terminus assumed) was run?
**A.** Its value is 113%.

**Q.** How did the “% activity*” value (glucagon receptor; Table 7) turn out when `CC(=O)NCC[C@H](NC(=O)[C@H](CO)NC(=O)[C@@H](N)Cc1c[nH]cn1)C(=O)NCC(=O)N[C@H](C(=O)N[C@@H](Cc1ccccc1)C(=O)N[C@H](C(=O)N[C@@H](CO)C(=O)N[C@@H](CC(=O)O)C(=O)N[C@@H](Cc1ccc(O)cc1)C(=O)N[C@@H](CO)C(=O)N[C@@H](CCCCN)C(=O)N[C@@H](Cc1ccc(O)cc1)C(=O)N[C@@H](CC(C)C)C(=O)N[C@@H](CC(=O)O)C(=O)NC(C)(C)C(=O)N[C@@H](CCCNC(=N)N)C(=O)N[C@@H](CCCNC(=N)N)C(=O)N[C@@H](C)C(=O)N[C@H](C(=O)N[C@@H](CC(=O)O)C(=O)N[C@@H](Cc1ccccc1)C(=O)N[C@H](C(=O)N[C@H](C(=O)N[C@@H](Cc1c[nH]c2ccccc12)C(=O)N[C@@H](CC(C)C)C(=O)N[C@@H](CC(C)C)C(=O)N[C@@H](CC(=O)O)C(=O)N[C@@H](CCC(=O)O)C(=O)O)[C@@H](C)O)C(C)C)[C@@H](C)O)[C@@H](C)O)[C@@H](C)O` [SEQ ID NO: 256] (H-HS[Dab](Ac)GTFTSDYSKYLD[Aib]RRATDFVTWLLDE-OH; N-terminus and C-terminus assumed) was run?
**A.** Its value is 46%.

**Q.** `CC[C@H](C)[C@H](NC(=O)[C@H](Cc1ccccc1)NC(=O)[C@H](CCC(=O)O)NC(=O)[C@H](CCCCN)NC(=O)[C@H](CCC(N)=O)NC(=O)[C@H](Cc1c[nH]cn1)NC(=O)[C@@H](NC(=O)[C@@H]1CCC(=O)NCCCC[C@H](NC(=O)[C@H](CO)NC(=O)[C@H](Cc2ccc(O)cc2)NC(=O)[C@H](CC(=O)O)NC(=O)[C@H](CO)NC(=O)[C@@H](NC(=O)[C@H](Cc2ccccc2)NC(=O)[C@@H](NC(=O)CNC(=O)[C@H](CCC(N)=O)NC(=O)[C@H](CO)NC(=O)[C@@H](N)Cc2c[nH]cn2)[C@@H](C)O)[C@@H](C)O)C(=O)N[C@@H](Cc2ccc(O)cc2)C(=O)N[C@@H](CC(C)C)C(=O)N[C@@H](CC(=O)O)C(=O)N1)[C@@H](C)CC)C(=O)N[C@@H](C)C(=O)N[C@@H](Cc1c[nH]c2ccccc12)C(=O)N[C@@H](CC(C)C)C(=O)N[C@@H](CCSC)C(=O)N[C@@H](CC(N)=O)C(=O)N[C@H](C(N)=O)[C@@H](C)O` [mt-63] was tested. Which EC50 (glucagon receptor) did it give?
**A.** The EC50 was 3.15 nM.

**Q.** What about the “Glucagon Receptor relative activity” value (glucagon receptor) of the same molecule?
**A.** The value was 6.03%.

**Q.** What about the “GLP-1 Receptor relative activity” value (GLP-1 receptor) of the same molecule?
**A.** Its value is 12.90%.

**Q.** Which EC50 (glucagon receptor) does the source give for `CC[C@H](C)[C@H](NC(=O)[C@H](Cc1ccccc1)NC(=O)[C@H](CCC(=O)O)NC(=O)[C@@H]1CCCCNC(=O)CC[C@H](NC(=O)[C@H](CC(=O)O)NC(=O)[C@H](CC(C)C)NC(=O)[C@H](Cc2ccc(O)cc2)NC(=O)[C@@H](NC(=O)[C@H](CO)NC(=O)[C@H](Cc2ccc(O)cc2)NC(=O)[C@H](CC(=O)O)NC(=O)[C@H](CO)NC(=O)[C@@H](NC(=O)[C@H](Cc2ccccc2)NC(=O)[C@@H](NC(=O)CNC(=O)[C@H](CCC(N)=O)NC(=O)[C@H](CO)NC(=O)[C@@H](N)Cc2c[nH]cn2)[C@@H](C)O)[C@@H](C)O)[C@@H](C)CC)C(=O)N[C@@H]([C@@H](C)CC)C(=O)N[C@@H](Cc2c[nH]cn2)C(=O)N[C@@H](CCC(N)=O)C(=O)N1)C(=O)N[C@@H](CS)C(=O)N[C@@H](Cc1c[nH]c2ccccc12)C(=O)N[C@@H](CC(C)C)C(=O)N[C@@H](CC(C)C)C(=O)N[C@@H](C)C(=O)N[C@@H](CCC(N)=O)C(N)=O` [mt-84] (H-HSQGTFTSDYSIYLDEIHQKEFICWLLAQ-NH2; lactam 16-20; N-terminus assumed) here?
**A.** Its EC50 is 0.45 nM.

**Q.** And the “Glucagon Receptor relative activity” value (glucagon receptor)?
**A.** Its value is 13.33%.

**Q.** What about the EC50 (GLP-1 receptor; GLP-1 Receptor EC50, nM) of the same molecule?
**A.** The EC50 was 0.16 nM.

**Q.** And the “GLP-1 Receptor relative activity” value (GLP-1 receptor)?
**A.** Its value is 50.00%.

**Q.** How did the “GLP-1 Receptor relative activity” value (GLP-1 receptor) turn out when `CC[C@H](C)[C@H](NC(=O)[C@H](CO)NC(=O)[C@H](Cc1ccc(O)cc1)NC(=O)[C@H](CC(=O)O)NC(=O)[C@H](CO)NC(=O)[C@@H](NC(=O)[C@H](Cc1ccccc1)NC(=O)[C@@H](NC(=O)CNC(=O)[C@H](CCC(N)=O)NC(=O)C(C)(C)N)[C@@H](C)O)[C@@H](C)O)C(=O)N[C@@H](Cc1ccc(O)cc1)C(=O)N[C@@H](CC(C)C)C(=O)N[C@@H](CC(=O)O)C(=O)N[C@@H](CCC(=O)O)C(=O)N[C@@H](CCC(=O)O)C(=O)N[C@@H](C)C(=O)N[C@H](C(=O)N[C@@H](CCCNC(=N)N)C(=O)N[C@@H](CC(C)C)C(=O)N[C@@H](Cc1ccccc1)C(=O)N[C@H](C(=O)N[C@@H](CC(N)=O)C(=O)N[C@@H](Cc1c[nH]c2ccccc12)C(=O)N[C@@H](CC(C)C)C(=O)N[C@@H](CC(C)C)C(=O)N[C@@H](C)C(=O)NCC(=O)NCC(=O)N1CCC[C@H]1C(=O)N[C@@H](CO)C(=O)N[C@@H](CO)C(=O)NCC(=O)N[C@@H](C)C(=O)N1CCC[C@H]1C(=O)N1CCC[C@H]1C(=O)N1CCC[C@H]1C(=O)N[C@@H](CO)C(N)=O)C(C)C)C(C)C` [mt-194] (H-[Aib]QGTFTSDYSIYLDEEAVRLFVNWLLAGGPSSGAPPPS-NH2; N-terminus assumed) was run?
**A.** Its value is 0.63%.

**Q.** How did the “GLP-1 Receptor relative activity” value (GLP-1 receptor) turn out when “FTSDYSIYLDEQAAKEFVNWLLAGGPSSGAPPPS-NH2 [mt-192]” was run?
**A.** Its value is 0.06%.
